Results as given in patent publication US9682141B2, “Combination of kinase inhibitors and uses thereof” (INTELLIKINE LLC, priority 2011, dated 2017).
pIC50: −log10 of the molar value. Read-outs that look alike come from different tables or passages of the source.

Columns and labels:
Type in all cases: biochemical
PI3K α = PI3K α (Homo sapiens (Human), UniProt P42336); assay: PI 3-Kinase (human) HTRF assay, p110α/p85α
PI3K β = PI3K β (Homo sapiens (Human), UniProt P42338); assay: PI 3-Kinase (human) HTRF assay, p110β/p85α
[1] = PI 3-Kinase (human) HTRF assay, p110δ/p85α; conditions: read-out: PI3K γ IC50
PI3K γ = PI3K γ (Homo sapiens (Human), UniProt P48736); assay: PI 3-Kinase (human) HTRF assay, p110γ
Procedure: An exemplary system is PI 3-Kinase (human) HTRF™ Assay from Upstate. […] Briefly, the assay is a time resolved FRET assay that indirectly measures PIP3 product formed by the activity of a PI3-K. The kinase reaction is performed in a microtitre plate (e.g., a 384 well microtitre plate). The total reaction volume is approximately 20 ul per well. In the first step, each well receives 2 ul of test compound in 20% dimethylsulphoxide resulting in a 2% DMSO final concentration. Next, approximately 14.5 ul of a kinase/PIP2 mixture (diluted in 1× reaction buffer) is added per well for a final concentration of 0.25-0.3 ug/ml kinase and 10 μM PIP2. The plate is sealed and incubated for 15 minutes at room temperature. To start the reaction, 3.5 ul of ATP (diluted in 1× reaction buffer) is added per well for a final concentration of 10 μM ATP. The plate is sealed and incubated for 1 hour at room temperature. The reaction is stopped by adding 5 ul of Stop Solution per well and then 5 ul of Detection Mix is added per well. The plate is sealed, incubated for 1 hour at room temperature, and then read on an appropriate plate reader. Data is analyzed and IC50s are generated using GraphPad Prism 5. For PI3K α, β, δ, and γ, the nM concentration of inhibitor to reach IC50 is provided.

mTORC = mTORC (Homo sapiens (Human), UniProt P42345); assay: mTOR inhibition assay (radiometric or LanthaScreen TR-FRET)
Procedure: The compounds described herein can be tested against recombinant mTOR (Invitrogen) in an assay containing 50 mM HEPES, pH 7.5, 1 mM EGTA, 10 mM MgCl2, 2.5 mM, 0.01% Tween, 10 μM ATP (2.5 μCi of μ-32P-ATP), and 3 μg/mL BSA. Rat recombinant PHAS-1/4EBP1 (Calbiochem; 2 mg/mL) is used as a substrate. Reactions are terminated by spotting onto nitrocellulose, which is washed with 1M NaCl/1% phosphoric acid (approximately 6 times, 5-10 minutes each). Sheets are dried and the transferred radioactivity quantitated by phosphorimaging.
For instance, one can use Invitrogen's LanthaScreen™ Kinase assay to test the inhibitors of mTOR disclosed herein. This assay is a time resolved FRET platform that measures the phosphorylation of GFP labeled 4EBP1 by mTOR kinase. The kinase reaction is performed in a white 384 well microtitre plate. The total reaction volume is 20 ul per well and the reaction buffer composition is 50 mM HEPES pH7.5, 0.01% Polysorbate 20, 1 mM EGTA, 10 mM MnCl2, and 2 mM DTT. In the first step, each well receives 2 ul of test compound in 20% dimethylsulphoxide resulting in a 2% DMSO final concentration. Next, 8 ul of mTOR diluted in reaction buffer is added per well for a 60 ng/ml final concentration. To start the reaction, 10 ul of an ATP/GFP-4EBP1 mixture (diluted in reaction buffer) is added per well for a final concentration of 10 μM ATP and 0.5 μM GFP-4EBP1. The plate is sealed and incubated for 1 hour at room temperature. […] The plate is sealed, incubated for 1 hour at room temperature, and then read on a plate reader set up for LanthaScreen™ TR-FRET. Data is analyzed and IC50s are generated using GraphPad Prism 5.

PI3K δ = PI3K δ (Homo sapiens (Human), UniProt O00329); assay: PI 3-Kinase (human) HTRF assay, p110δ/p85α
PI3K δ, sequence (O00329 whole entry): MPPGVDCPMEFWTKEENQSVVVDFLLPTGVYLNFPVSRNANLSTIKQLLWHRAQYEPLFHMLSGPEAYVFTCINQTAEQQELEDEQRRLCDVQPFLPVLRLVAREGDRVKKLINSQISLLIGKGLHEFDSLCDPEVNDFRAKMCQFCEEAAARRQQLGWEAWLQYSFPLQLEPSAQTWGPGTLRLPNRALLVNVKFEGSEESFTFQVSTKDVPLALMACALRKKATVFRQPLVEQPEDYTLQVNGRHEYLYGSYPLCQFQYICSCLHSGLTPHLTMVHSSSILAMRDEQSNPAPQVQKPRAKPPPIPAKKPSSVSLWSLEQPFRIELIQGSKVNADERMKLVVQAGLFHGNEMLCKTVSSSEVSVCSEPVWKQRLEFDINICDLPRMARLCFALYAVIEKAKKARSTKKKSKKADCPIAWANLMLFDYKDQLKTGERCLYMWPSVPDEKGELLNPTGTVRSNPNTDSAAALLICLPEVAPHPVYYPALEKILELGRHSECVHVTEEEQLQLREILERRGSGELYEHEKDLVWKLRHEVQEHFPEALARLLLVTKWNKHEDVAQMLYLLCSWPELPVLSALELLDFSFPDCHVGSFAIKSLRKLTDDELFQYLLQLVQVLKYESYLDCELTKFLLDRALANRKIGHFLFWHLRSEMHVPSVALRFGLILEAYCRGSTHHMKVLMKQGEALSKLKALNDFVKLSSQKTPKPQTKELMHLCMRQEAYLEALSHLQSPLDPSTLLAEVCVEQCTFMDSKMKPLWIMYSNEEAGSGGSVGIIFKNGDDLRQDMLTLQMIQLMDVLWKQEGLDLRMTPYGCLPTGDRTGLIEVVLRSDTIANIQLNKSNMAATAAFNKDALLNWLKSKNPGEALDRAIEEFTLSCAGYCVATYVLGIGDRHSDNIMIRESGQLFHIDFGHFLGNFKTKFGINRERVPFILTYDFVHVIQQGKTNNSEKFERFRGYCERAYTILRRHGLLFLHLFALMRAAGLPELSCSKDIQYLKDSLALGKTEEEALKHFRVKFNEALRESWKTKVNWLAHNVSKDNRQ
PI3K δ, sequence (P27986 whole entry partner): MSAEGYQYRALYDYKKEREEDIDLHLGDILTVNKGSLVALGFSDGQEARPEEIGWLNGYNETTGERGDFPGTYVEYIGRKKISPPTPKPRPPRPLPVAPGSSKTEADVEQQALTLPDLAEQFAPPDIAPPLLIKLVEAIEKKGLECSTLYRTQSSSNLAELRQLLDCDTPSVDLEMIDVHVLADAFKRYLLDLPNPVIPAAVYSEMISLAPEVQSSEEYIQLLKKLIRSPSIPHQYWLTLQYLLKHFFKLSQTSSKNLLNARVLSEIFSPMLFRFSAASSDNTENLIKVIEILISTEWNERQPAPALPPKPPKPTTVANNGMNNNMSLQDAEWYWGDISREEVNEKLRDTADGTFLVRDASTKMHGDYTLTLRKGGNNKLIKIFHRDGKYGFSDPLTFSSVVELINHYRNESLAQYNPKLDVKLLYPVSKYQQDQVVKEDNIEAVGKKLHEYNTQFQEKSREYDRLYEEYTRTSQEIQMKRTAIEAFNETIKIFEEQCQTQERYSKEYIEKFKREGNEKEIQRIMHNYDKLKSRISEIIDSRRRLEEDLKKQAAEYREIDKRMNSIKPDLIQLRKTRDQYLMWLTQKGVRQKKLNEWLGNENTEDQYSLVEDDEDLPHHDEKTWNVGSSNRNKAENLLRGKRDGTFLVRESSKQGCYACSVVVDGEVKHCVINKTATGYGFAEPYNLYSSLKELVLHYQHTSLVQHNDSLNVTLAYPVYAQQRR

mTORC, sequence (P42345 1360-2549): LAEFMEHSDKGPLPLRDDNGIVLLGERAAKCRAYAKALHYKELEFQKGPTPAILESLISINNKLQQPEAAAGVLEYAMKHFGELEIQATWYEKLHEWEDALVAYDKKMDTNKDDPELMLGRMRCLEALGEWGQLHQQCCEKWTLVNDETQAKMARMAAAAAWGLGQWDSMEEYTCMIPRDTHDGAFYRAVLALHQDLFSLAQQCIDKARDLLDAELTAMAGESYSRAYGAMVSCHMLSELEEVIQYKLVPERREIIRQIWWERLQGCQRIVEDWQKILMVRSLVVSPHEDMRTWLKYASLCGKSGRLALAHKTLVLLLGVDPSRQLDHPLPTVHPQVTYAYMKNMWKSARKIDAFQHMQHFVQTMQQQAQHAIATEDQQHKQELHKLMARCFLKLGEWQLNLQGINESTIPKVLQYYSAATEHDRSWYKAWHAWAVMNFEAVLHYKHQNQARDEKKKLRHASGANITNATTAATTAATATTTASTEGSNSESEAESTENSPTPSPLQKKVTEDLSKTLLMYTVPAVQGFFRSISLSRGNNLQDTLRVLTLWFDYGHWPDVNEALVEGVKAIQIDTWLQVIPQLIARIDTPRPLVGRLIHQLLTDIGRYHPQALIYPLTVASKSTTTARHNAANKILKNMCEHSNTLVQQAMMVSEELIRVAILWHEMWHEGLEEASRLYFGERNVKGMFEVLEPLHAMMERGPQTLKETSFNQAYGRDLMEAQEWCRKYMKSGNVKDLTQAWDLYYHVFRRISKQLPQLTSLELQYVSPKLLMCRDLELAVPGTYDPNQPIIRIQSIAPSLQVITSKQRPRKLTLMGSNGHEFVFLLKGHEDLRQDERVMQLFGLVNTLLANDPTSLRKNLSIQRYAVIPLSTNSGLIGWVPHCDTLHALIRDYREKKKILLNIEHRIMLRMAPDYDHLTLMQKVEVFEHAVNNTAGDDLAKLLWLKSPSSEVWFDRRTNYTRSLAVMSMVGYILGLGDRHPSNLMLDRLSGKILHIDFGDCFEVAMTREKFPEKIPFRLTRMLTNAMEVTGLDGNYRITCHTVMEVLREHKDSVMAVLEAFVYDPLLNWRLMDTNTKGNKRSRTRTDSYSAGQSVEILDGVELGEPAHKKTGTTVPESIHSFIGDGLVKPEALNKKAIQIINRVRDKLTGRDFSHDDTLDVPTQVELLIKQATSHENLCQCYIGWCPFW
PI3K β, sequence (P42338 whole entry): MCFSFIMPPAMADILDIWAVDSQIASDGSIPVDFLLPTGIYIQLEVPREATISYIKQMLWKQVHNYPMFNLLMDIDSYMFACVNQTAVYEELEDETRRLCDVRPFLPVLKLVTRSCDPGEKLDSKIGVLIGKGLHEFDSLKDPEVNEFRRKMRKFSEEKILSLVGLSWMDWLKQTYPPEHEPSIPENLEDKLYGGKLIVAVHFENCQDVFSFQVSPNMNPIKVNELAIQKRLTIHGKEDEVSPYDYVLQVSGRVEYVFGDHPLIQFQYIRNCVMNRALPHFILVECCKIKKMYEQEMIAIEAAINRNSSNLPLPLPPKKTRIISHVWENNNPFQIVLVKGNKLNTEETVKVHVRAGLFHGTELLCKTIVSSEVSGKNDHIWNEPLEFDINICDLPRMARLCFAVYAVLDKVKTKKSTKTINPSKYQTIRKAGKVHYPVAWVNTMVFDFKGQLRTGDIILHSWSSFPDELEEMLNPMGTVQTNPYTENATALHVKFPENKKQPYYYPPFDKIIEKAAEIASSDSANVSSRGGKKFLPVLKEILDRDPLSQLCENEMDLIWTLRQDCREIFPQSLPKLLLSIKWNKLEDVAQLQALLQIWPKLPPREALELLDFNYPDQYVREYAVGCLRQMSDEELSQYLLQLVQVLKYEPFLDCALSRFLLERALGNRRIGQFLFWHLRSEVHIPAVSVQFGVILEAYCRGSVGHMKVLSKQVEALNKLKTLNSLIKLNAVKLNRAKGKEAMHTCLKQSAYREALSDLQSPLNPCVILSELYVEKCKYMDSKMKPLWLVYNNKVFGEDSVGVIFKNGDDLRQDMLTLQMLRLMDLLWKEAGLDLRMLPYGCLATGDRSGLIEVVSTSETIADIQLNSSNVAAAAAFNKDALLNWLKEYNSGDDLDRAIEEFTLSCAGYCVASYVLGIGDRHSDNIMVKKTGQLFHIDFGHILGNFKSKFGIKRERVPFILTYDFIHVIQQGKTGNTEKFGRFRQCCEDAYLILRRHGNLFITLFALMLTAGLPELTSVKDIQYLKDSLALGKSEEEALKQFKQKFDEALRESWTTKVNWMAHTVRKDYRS
PI3K β, sequence (P27986 whole entry partner): as the sequence (P27986 whole entry partner) above

Nc1nc2cc(-c3ccc4ncc(N5CC(n6cccn6)C5)nc4c3)ccc2o1
pIC50 (PI3K α): > 7.00 | pIC50 (PI3K β): > 5.00 | pIC50 [1]: < 5.00 | pIC50 (PI3K γ; read-out: PI3K δ IC50): > 5.00 | pIC50 (mTORC): > 6.00

COC(=O)N1CCC(n2ncc3c(N4CCOCC4)nc(-c4ccc5oc(N)nc5c4)nc32)CC1
pIC50 (PI3K α): > 6.00 | pIC50 (PI3K β): > 5.00 | pIC50 [1]: < 5.00 | pIC50 (PI3K γ; read-out: PI3K δ IC50): < 5.00 | pIC50 (mTORC): > 6.00

CN1CCN(C2CN(c3cnc4ccc(-c5ccc6oc(N)nc6c5)cc4n3)C2)CC1
pIC50 (PI3K α): > 7.00 | pIC50 (PI3K β): > 5.00 | pIC50 [1]: > 5.00 | pIC50 (PI3K γ; read-out: PI3K δ IC50): > 5.00 | pIC50 (mTORC): > 5.00

CN1CCN(c2cnc3ccc(-c4ccc5oc(N)nc5c4)cc3n2)CC1
pIC50 (PI3K α): > 7.00 | pIC50 (PI3K β): > 7.00 | pIC50 (PI3K γ; read-out: PI3K γ IC50): > 6.00 | pIC50 (mTORC): < 5.00

CC(=O)Nc1ncc(-c2ccc3oc(N)nc3c2)s1
pIC50 (PI3K α): > 5.00 | pIC50 (PI3K β): < 5.00 | pIC50 [1]: > 5.00 | pIC50 (PI3K γ; read-out: PI3K δ IC50): > 5.00 | pIC50 (mTORC): > 5.00

CC(C)Oc1nc(-c2ccc3oc(N)nc3c2)cnc1N
pIC50 (PI3K α): > 5.00 | pIC50 (PI3K β): > 5.00 | pIC50 (PI3K γ; read-out: PI3K δ IC50): > 5.00 | pIC50 (mTORC): > 6.00

CN1CCN(C2CN(C(=O)c3cnc4ccc(-c5ccc6oc(N)nc6c5)cn34)C2)CC1
pIC50 (PI3K α): > 7.00 | pIC50 (PI3K β): < 5.00 | pIC50 [1]: > 5.00 | pIC50 (PI3K γ; read-out: PI3K δ IC50): < 5.00 | pIC50 (mTORC): > 5.00

Nc1nc2cc(-c3cccc4[nH]nc(N)c34)ccc2o1
pIC50 (PI3K α): < 5.00 | pIC50 (PI3K β): < 5.00 | pIC50 (PI3K γ; read-out: PI3K δ IC50): < 5.00 | pIC50 (mTORC): < 5.00

CN1CCN([C@@H]2CCN(c3cnc4ccc(-c5ccc6oc(N)nc6c5)cc4n3)C2)CC1
pIC50 (PI3K α): > 7.00 | pIC50 (PI3K β): > 6.00 | pIC50 [1]: > 5.00 | pIC50 (PI3K γ; read-out: PI3K δ IC50): < 5.00 | pIC50 (mTORC): > 5.00

Nc1nc2cc(-c3ccc4ncc(N5CC(N6CCN(CC7CC7)CC6)C5)nc4c3)ccc2o1
pIC50 (PI3K α): > 7.00 | pIC50 (PI3K β): > 5.00 | pIC50 [1]: > 5.00 | pIC50 (PI3K γ; read-out: PI3K δ IC50): < 5.00 | pIC50 (mTORC): < 5.00

Nc1nc2cc(-c3ccc4ncc(N5CC(C(=O)N6CCN(C7CC7)CC6)C5)nc4c3)ccc2o1
pIC50 (PI3K α): > 7.00 | pIC50 (PI3K β): > 5.00 | pIC50 [1]: > 6.00 | pIC50 (PI3K γ; read-out: PI3K δ IC50): > 6.00 | pIC50 (mTORC): > 5.00

Nc1nc2cc(-c3ccc4ncc(C(=O)N[C@H]5CC[C@H](O)CC5)n4c3)ccc2o1
pIC50 (PI3K β): > 5.00 | pIC50 (PI3K γ; read-out: PI3K γ IC50): > 7.00 | pIC50 (mTORC): < 5.00

CC(=O)Nc1cn2cc(-c3ccc4oc(N)nc4c3)ccc2n1
pIC50 (PI3K α): > 7.00 | pIC50 (PI3K β): > 6.00 | pIC50 [1]: > 7.00 | pIC50 (PI3K γ; read-out: PI3K δ IC50): > 7.00 | pIC50 (mTORC): > 6.00

Nc1nc2cc(-c3ccc4ncc(N5CC(N6CCOCC6)C5)nc4c3)ccc2o1
pIC50 (PI3K α): > 7.00 | pIC50 (PI3K β): < 5.00 | pIC50 [1]: < 5.00 | pIC50 (PI3K γ; read-out: PI3K δ IC50): > 5.00 | pIC50 (mTORC): > 6.00

O=C(c1cnc2ccc(-c3cnc(Cl)c(NS(=O)(=O)c4ccc(F)cc4F)c3)cn12)N1CCOCC1
pIC50 (PI3K α): > 7.00 | pIC50 (PI3K β): > 7.00 | pIC50 [1]: > 7.00 | pIC50 (PI3K γ; read-out: PI3K δ IC50): > 7.00 | pIC50 (mTORC): > 6.00

C[C@@H]1CN(C(=O)C2CN(c3cnc4ccc(-c5ccc6oc(N)nc6c5)cc4n3)C2)CCN1
pIC50 (PI3K α): > 7.00 | pIC50 (PI3K β): > 5.00 | pIC50 [1]: > 6.00 | pIC50 (PI3K γ; read-out: PI3K δ IC50): > 6.00 | pIC50 (mTORC): > 5.00

C[C@@H]1CN(C2CN(c3cnc4ccc(-c5ccc6oc(N)nc6c5)nc4n3)C2)CCN1
pIC50 (PI3K α): > 7.00 | pIC50 (PI3K β): < 5.00 | pIC50 (PI3K γ; read-out: PI3K γ IC50): < 5.00 | pIC50 (mTORC): < 5.00

Nc1nc2cc(-c3ccc4nc(N)oc4c3)ccc2o1
pIC50 (PI3K α): > 6.00 | pIC50 [1]: > 6.00 | pIC50 (PI3K γ; read-out: PI3K δ IC50): > 7.00 | pIC50 (mTORC): > 5.00

Nc1nc2cc(-c3ccc4oc(N)nc4c3)ccc2o1
pIC50 (PI3K α): > 6.00 | pIC50 [1]: > 5.00 | pIC50 (PI3K γ; read-out: PI3K δ IC50): > 7.00 | pIC50 (mTORC): > 5.00

C[C@@H]1CN(c2cnc3ccc(-c4ccc5oc(N)nc5c4)nc3c2)CCN1
pIC50 (PI3K α): > 7.00 | pIC50 (PI3K β): > 6.00 | pIC50 (PI3K γ; read-out: PI3K γ IC50): > 5.00 | pIC50 (mTORC): < 5.00

Nc1ncc2cc(-c3ccc4nccc(-c5ccncc5)c4c3)ccc2n1 [Compound 9]
pIC50 (PI3K α): > 6.00 | pIC50 (PI3K β): > 5.00 | pIC50 (PI3K γ; read-out: PI3K γ IC50): > 6.00 | pIC50 (mTORC): < 5.00

C[C@@H]1CN(c2cnc3ccc(-c4ccc5oc(N)nc5c4)cc3n2)CCN1
pIC50 (PI3K α): > 7.00 | pIC50 (PI3K β): > 6.00 | pIC50 (PI3K δ): > 5.00 | pIC50 (PI3K γ; read-out: PI3K γ IC50): > 5.00

Nc1nc2cc(-c3cc4nccc(-c5ccncc5)c4s3)ccc2o1 [Compound 14]
pIC50 (PI3K α): > 5.00 | pIC50 (PI3K β): < 5.00 | pIC50 (PI3K δ): < 5.00 | pIC50 (PI3K γ; read-out: PI3K γ IC50): > 5.00

Nc1ncnc2ccc(-c3ccc4nccc(-c5ccncc5)c4c3)cc12 [Compound 8]
pIC50 (PI3K α): > 5.00 | pIC50 (PI3K β): < 5.00 | pIC50 (PI3K γ; read-out: PI3K γ IC50): > 6.00 | pIC50 (mTORC): < 5.00

Nc1nc2cc(-c3ccc4ncc(N5CC(N6C7CCC6COC7)C5)cc4n3)ccc2o1
pIC50 (PI3K α): > 7.00 | pIC50 (PI3K β): < 5.00 | pIC50 (PI3K δ): > 5.00 | pIC50 (PI3K γ; read-out: PI3K γ IC50): > 6.00

N#Cc1cnc2ccc(-c3ccc4oc(N)nc4c3)cc2c1Cl
pIC50 (mTORC): > 6.00

CN1CCN(c2cnc3ccc(-c4ccc5nc(N)sc5c4)cc3n2)CC1
pIC50 (PI3K α): > 7.00 | pIC50 (PI3K β): > 7.00 | pIC50 (PI3K δ): < 5.00 | pIC50 (PI3K γ; read-out: PI3K γ IC50): > 5.00
